Test results from ChEMBL document CHEMBL1201862, “PubChem BioAssay data set” (2004).
Activity calls are given as the source filed them.

Tests used:
[1] = biological target: Eukaryotic translation initiation factor 4E (Mus musculus, UniProt P63073); assay: eIF4E–eIF4G protein interaction inhibitors, dose response, biochemical, TR-FRET (AID 855); type: functional;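 further: potency for disrupting eIF4E binding to eIF4GI seen as loss of FRET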
[2] = HEp-2 cell cytotoxicity, dose response, cytotoxicity control for RSV inhibitor project, HTS (AID 2410); type: functional; conditions: human respiratory syncytial virus
[3] = biological target: Neurotensin receptor type 1 (Homo sapiens, UniProt P30989); type: functional;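 further: Image-based confirmatory dose-response assay measuring agonist activity at NTR1; NTR1-expressing U2OS osteosarcoma cells imaged for beta-arrestin GFP spot formation; agonist potency where compounds increase beta-arrestin recruitment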
[4] = cytotoxicity in HEK-293T cells, dose response, cytotoxicity control for BCR NF-kB inhibitor project, luminescence, B-cell screen hits (AID 489021); type: functional, cell-based;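 further: HEK-293T cells carrying an NF-kB luciferase reporter; cells exposed to compound for about 14 hours before viability readout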
[5] = biological target: T1, Microphthalmia-associated transcription factor (Homo sapiens, UniProt O75030); assay: TRPM1 promoter luciferase signal decrease, dose response, MITF inhibitor project, cell-based, SK-MEL-5, cherry-picked, set 3 (AID 493073); type: functional
T1 sequence (O75030 whole entry): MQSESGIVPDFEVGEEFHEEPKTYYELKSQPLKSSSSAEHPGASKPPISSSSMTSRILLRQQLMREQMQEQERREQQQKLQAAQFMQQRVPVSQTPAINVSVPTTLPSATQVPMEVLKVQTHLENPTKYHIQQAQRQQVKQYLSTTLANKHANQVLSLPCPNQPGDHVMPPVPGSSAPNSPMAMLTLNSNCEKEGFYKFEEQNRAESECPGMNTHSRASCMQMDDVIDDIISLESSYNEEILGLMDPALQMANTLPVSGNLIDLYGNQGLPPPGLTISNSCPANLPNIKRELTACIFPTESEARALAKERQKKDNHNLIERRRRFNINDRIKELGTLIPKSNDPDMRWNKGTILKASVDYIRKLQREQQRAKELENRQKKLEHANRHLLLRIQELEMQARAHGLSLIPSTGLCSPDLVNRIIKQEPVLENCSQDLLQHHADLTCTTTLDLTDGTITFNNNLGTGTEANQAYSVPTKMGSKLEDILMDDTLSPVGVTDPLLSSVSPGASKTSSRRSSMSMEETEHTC

[6] = biological target: T2, Replicative DNA helicase DnaB (Mycobacterium tuberculosis, UniProt P9WMR3); assay: DnaB intein splicing inhibitors, dose response, biochemical, cell-free fluorescence (AID 449749); type: functional
T2 sequence (P9WMR3 whole entry): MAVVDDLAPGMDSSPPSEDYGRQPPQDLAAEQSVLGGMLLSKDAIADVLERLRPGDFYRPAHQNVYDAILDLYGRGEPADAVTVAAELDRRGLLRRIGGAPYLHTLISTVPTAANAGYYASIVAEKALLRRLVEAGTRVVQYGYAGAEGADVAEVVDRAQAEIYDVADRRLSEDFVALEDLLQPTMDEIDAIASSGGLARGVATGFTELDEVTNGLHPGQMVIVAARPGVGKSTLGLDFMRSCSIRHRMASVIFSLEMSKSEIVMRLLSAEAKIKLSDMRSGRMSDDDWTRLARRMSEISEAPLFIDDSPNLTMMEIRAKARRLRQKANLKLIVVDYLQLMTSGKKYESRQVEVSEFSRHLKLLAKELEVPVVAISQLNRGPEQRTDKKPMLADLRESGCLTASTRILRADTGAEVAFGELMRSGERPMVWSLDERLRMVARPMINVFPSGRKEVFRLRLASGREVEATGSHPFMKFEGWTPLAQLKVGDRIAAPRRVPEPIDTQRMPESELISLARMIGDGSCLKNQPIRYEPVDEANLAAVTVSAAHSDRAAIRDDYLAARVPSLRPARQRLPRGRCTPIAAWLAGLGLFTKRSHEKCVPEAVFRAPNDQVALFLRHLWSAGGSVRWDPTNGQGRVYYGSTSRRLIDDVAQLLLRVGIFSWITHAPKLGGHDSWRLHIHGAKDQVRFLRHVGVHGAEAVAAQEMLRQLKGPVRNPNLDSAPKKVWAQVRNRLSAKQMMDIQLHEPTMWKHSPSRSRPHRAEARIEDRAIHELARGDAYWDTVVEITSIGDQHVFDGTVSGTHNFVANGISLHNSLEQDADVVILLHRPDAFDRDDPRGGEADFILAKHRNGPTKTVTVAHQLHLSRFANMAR

Protein RecA = biological target: T3, Protein RecA (Mycobacterium tuberculosis, UniProt P9WHJ3); assay: Fluorescence Cell-Free Homogeneous Dose Retest to Identify Inhibitors of RecA-Intein Splicing Activity. [Related pubchem assays (depositor defined):AID2097, AID2223, AID489010, AID492950]; type: functional
T3 sequence (P9WHJ3 whole entry): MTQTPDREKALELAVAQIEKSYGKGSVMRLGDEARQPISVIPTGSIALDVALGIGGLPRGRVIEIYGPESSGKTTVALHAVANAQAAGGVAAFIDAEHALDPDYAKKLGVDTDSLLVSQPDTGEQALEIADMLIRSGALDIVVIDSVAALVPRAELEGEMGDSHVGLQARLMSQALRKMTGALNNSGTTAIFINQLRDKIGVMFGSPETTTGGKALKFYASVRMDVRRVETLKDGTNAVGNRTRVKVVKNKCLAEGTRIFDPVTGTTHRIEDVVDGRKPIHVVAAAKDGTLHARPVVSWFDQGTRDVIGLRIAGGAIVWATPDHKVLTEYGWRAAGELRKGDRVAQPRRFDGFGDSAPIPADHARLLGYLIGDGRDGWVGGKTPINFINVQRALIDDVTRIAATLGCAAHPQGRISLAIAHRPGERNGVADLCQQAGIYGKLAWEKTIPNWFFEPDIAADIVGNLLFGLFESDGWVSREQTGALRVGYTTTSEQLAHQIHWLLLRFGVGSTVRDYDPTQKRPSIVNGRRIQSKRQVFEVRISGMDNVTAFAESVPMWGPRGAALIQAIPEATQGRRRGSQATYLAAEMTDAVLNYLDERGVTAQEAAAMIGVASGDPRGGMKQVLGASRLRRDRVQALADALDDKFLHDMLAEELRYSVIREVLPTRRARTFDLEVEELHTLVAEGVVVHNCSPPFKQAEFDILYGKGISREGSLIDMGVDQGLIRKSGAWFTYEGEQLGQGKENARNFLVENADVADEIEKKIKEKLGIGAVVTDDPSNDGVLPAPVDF

[7] = biological target: T4, Histone-lysine N-methyltransferase NSD2 (Homo sapiens, UniProt O96028); type: biochemical
T4 sequence (O96028 whole entry): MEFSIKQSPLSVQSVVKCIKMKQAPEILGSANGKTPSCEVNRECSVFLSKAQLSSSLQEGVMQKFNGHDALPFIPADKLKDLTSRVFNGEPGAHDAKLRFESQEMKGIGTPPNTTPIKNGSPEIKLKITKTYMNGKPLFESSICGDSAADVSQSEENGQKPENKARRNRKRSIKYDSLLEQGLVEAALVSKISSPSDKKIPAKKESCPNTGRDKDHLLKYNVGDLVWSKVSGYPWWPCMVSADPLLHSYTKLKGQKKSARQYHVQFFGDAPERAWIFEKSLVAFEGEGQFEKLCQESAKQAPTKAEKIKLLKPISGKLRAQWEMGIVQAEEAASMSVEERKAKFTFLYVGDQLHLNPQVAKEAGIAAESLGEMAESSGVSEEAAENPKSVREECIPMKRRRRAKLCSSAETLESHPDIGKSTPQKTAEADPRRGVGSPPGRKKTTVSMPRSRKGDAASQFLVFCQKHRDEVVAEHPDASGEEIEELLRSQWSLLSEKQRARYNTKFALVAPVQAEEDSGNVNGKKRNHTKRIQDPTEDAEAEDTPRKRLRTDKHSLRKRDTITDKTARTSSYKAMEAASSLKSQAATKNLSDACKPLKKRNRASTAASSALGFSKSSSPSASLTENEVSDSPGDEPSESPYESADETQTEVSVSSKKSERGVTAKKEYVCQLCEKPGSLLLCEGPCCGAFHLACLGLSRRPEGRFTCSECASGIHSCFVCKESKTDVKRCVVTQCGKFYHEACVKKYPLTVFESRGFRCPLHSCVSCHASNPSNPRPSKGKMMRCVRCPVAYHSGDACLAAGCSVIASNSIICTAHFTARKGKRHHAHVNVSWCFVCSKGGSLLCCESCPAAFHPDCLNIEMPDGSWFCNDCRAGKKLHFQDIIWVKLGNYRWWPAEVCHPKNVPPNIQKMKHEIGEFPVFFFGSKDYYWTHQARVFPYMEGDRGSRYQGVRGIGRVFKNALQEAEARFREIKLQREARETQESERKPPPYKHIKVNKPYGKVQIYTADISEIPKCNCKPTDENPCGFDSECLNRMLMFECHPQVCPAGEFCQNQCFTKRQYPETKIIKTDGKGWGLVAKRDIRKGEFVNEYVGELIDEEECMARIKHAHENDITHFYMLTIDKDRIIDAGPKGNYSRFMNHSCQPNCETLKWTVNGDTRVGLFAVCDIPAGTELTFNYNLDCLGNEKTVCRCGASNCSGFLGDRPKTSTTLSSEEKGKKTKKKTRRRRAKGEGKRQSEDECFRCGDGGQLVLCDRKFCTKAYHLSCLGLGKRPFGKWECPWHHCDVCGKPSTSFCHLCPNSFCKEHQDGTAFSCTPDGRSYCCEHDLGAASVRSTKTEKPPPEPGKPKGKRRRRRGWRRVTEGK

CAAX prenyl protease 2 = biological target: T5, CAAX prenyl protease 2 (Homo sapiens, UniProt Q9Y256); assay: human Rce1 protease inhibitors, dose response, biochemical, yeast membranes, quenched-peptide fluorescence, cherry-pick (AID 588849)
T5 sequence (Q9Y256 whole entry): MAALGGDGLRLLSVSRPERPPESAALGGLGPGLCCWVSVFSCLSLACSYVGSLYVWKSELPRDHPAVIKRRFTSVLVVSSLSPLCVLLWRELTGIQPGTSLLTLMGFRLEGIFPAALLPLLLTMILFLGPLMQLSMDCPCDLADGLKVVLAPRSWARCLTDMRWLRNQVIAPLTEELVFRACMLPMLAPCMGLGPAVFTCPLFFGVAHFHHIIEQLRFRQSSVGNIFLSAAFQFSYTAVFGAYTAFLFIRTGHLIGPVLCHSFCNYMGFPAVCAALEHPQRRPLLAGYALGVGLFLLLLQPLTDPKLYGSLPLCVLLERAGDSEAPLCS

Trypsin = Trypsin (Sus scrofa, UniProt P00761); assay: porcine trypsin inhibitors, dose response, selectivity assay for Rce1 protease inhibitor project, biochemical, quenched peptide fluorescence, cherry-pick (AID 488789)
[8] = NIH-3T3 fibroblast cytotoxicity, dose response, cytotoxicity control, cell-based, fluorescence, Alamar Blue, secondary assay (AID 2327); type: functional;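 further: NIH-3T3 mouse fibroblasts cultured with fluconazole at 8 µg/mL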
Nonstructural protein 1 = Nonstructural protein 1 (Influenza A virus, UniProt Q194T2); type: functional, Influenza A virus (A/California/07/2009(H1N1))
Beta-galactosidase = Beta-galactosidase (Escherichia coli, UniProt Q8VNN2); assay: beta-galactosidase enzyme inhibitors and activators, dose response, artefact control for CCR6 antagonist project, biochemical, E. coli enzyme, set 3 (AID 504712); type: functional
CAAX prenyl protease 1 = biological target: T6, CAAX prenyl protease 1 (Saccharomyces cerevisiae S288c, UniProt P47154); assay: Ste24 protease inhibitors, dose response, biochemical, S. cerevisiae, plate reader, cherry-pick (AID 488815)
T6 sequence (P47154 whole entry): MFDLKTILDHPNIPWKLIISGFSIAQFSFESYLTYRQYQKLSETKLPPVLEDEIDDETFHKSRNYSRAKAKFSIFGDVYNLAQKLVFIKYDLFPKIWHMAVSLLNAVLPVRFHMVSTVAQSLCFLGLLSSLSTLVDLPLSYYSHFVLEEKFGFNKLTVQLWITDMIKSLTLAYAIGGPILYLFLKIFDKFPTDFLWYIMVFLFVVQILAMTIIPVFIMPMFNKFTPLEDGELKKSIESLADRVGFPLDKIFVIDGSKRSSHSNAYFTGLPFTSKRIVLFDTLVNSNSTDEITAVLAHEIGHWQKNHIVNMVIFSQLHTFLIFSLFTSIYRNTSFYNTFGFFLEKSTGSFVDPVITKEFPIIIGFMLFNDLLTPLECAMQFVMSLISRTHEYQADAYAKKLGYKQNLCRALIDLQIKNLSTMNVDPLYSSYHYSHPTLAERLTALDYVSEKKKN

Cytochrome P450 3A4 = Cytochrome P450 3A4 (Homo sapiens, UniProt P08684);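 further: CYP3A4 tested as one member of a cytochrome P450 panel screen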
Cytochrome P450 1A2 = biological target: T7, Cytochrome P450 1A2 (Homo sapiens, UniProt P05177);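 further: PubChem cytochrome P450 panel assay, CYP1A2 panel member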
T7 sequence (P05177 whole entry): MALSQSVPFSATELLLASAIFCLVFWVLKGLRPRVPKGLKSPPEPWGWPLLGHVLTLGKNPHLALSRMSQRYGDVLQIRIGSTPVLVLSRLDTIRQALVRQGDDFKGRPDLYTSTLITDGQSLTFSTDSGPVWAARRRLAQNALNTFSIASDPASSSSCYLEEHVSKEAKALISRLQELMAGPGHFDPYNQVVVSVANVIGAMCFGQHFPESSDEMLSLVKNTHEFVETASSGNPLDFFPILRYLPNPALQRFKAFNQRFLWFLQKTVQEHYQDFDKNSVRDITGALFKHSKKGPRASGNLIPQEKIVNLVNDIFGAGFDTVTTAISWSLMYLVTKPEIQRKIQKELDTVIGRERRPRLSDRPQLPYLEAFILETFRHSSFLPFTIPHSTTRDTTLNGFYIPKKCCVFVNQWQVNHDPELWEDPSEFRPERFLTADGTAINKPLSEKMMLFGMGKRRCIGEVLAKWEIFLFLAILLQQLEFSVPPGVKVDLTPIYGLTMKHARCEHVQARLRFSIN

Sequence of Trypsin (P00761 whole entry): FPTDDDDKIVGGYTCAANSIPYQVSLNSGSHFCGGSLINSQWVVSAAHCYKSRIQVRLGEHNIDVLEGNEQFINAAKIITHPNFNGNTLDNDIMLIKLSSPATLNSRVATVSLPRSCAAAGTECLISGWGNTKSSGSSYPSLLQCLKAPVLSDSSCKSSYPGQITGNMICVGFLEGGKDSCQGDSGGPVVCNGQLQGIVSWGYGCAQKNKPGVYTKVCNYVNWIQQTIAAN
Sequence of Eukaryotic translation initiation factor 4E (P63073 whole entry): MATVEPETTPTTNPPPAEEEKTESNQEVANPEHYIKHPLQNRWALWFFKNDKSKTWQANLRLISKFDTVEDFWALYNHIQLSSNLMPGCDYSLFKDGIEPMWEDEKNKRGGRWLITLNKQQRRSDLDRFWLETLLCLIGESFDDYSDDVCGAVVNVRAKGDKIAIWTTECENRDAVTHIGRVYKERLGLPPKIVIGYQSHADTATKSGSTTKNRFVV
Sequence of Cytochrome P450 3A4 (P08684 whole entry): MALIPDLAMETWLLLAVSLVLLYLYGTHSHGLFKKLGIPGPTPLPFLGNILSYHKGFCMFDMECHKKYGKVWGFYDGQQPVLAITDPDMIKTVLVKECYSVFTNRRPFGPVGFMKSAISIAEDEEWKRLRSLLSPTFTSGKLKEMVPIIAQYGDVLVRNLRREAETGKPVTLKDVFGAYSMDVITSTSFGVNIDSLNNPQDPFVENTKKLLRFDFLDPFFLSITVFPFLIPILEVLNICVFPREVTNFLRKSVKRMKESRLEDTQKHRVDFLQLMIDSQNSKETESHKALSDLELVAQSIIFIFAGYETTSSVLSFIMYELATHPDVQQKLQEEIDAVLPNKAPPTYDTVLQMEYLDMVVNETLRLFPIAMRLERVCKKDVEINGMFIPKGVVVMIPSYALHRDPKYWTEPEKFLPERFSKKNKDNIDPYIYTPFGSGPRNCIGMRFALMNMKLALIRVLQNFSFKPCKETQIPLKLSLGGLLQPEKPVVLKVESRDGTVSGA
Sequence of Nonstructural protein 1 (Q194T2 whole entry): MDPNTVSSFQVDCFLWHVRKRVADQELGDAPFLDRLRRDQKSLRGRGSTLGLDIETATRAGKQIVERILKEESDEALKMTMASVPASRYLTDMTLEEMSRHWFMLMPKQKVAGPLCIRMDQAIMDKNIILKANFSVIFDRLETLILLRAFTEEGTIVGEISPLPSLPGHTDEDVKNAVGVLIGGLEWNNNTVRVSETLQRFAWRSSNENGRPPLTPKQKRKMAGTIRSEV
Sequence of Beta-galactosidase (Q8VNN2 whole entry): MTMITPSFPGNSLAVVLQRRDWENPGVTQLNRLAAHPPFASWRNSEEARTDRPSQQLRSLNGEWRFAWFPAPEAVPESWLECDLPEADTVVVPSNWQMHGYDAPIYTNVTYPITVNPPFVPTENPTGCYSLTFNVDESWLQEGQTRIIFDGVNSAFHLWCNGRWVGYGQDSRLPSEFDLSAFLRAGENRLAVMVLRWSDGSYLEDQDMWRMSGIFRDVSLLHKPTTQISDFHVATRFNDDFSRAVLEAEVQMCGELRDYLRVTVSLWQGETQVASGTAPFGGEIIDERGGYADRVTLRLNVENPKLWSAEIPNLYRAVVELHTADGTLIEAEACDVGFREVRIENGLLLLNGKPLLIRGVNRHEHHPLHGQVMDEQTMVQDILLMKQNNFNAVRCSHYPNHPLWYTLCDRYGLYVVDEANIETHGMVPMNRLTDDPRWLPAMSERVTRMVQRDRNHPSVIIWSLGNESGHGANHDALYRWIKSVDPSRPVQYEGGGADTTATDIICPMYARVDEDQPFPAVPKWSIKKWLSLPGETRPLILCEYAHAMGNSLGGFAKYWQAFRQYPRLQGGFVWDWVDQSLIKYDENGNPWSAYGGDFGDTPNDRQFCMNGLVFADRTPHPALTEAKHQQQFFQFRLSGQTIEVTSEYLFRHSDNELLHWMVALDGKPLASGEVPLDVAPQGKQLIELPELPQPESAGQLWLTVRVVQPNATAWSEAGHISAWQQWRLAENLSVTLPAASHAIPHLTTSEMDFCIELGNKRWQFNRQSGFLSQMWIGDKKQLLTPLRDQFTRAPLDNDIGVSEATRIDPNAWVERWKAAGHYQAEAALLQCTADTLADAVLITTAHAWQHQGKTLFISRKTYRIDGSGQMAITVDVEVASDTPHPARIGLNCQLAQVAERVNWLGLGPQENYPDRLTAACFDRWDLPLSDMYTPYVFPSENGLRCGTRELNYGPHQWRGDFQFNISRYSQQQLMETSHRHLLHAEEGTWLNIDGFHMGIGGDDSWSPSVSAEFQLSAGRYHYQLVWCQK
Sequence of Neurotensin receptor type 1 (P30989 whole entry): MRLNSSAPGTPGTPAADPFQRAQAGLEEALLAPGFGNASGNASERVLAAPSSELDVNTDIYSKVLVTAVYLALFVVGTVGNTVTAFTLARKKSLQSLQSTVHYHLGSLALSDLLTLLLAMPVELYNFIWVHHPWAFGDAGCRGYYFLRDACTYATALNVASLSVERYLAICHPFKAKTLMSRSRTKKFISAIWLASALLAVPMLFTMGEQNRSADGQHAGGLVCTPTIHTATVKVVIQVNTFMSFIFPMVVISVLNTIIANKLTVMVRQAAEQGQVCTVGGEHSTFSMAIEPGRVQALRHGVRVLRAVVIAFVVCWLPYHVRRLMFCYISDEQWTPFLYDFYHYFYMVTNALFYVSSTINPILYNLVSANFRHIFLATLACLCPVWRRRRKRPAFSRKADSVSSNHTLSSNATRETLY

Structure (SMILES): CCN(CC)c1ccc(NC(=O)CCCOc2cccc(C)c2)cc1
- IC50 [1]: 50 µM (inactive)

Structure (SMILES): Cc1cc(C)cc(N2C(=O)NC(=O)/C(=C\c3cccn3-c3ccccc3)C2=O)c1
- CC50 [2]: 19.9 µM (active)
- EC50 [3]: 10.3 µM (active)
- IC50 [4]: > 80 µM (inactive)
- AC50 [5]: 13.8 µM (active)

Structure (SMILES): CC(=O)c1c(C)nc(-c2ccc(Cl)cc2)nc1/N=C/N(C)C
- AC50 [6]: > 380 µM (inactive)
- IC50 [1]: 40 µM (inactive)
- EC50 (Protein RecA): > 380 µM (inactive)
- AC50 [7]: > 20 µM (inactive)

Structure (SMILES): CN(C)/C=N/c1c(C#N)cnn1-c1ncnc2sc(-c3ccccc3)cc12
- AC50 (CAAX prenyl protease 2): 19.1 µM (active)
- AC50 (Trypsin): 8.06 µM (active)

Structure (SMILES): Cc1c(N=NC2=C(O)CC(C)(C)CC2=O)c(=O)n(-c2ccccc2)n1C
- EC50 [8]: > 160 µM (inactive)
- IC50 (Nonstructural protein 1): 3.63 µM (active)
- IC50 (Beta-galactosidase): > 66.6 µM (inactive)

Structure (SMILES): COc1ccc(CNC(=O)c2ccccc2NS(C)(=O)=O)cc1
- AC50 (CAAX prenyl protease 2): 11.7 µM (active)
- AC50 (CAAX prenyl protease 1): 5.47 µM (active)
- AC50 (Trypsin): 12.4 µM (active)

Structure (SMILES): CCOc1c2ccc(C(=O)NCc3ccco3)cc2nn1CCOC
- AC50 (CAAX prenyl protease 2): 12.3 µM (active)
- AC50 (Cytochrome P450 3A4): 22.4 µM (inconclusive)
- AC50 (CAAX prenyl protease 1): 11.5 µM (active)
- AC50 (Cytochrome P450 1A2): 15.8 µM (inconclusive)
- AC50 (Trypsin): 16.5 µM (active)
